Reference: article PMC6850767, “Light-at-night exposure affects brain development through pineal allopregnanolone-dependent mechanisms” (eLife, 2019)

Molecular target: T1, chicken mPRα (membrane progesterone receptor α) (Gallus gallus, UniProt C6KGD4)
T1 construct: gene PAQR7; membrane fraction or whole cells; band approx. 42 kDa
T1 sequence (C6KGD4 1-346): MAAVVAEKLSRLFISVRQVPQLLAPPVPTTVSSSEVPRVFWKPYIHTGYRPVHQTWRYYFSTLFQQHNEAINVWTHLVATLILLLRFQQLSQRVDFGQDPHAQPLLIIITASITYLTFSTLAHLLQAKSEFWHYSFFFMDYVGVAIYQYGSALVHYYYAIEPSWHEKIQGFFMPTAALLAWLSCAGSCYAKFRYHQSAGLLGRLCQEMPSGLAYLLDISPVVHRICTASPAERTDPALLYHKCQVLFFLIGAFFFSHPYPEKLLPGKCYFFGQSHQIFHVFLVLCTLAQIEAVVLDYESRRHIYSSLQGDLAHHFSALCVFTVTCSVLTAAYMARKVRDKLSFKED
Test: radioligand saturation binding, Scatchard plot, cell membrane fraction

Compound `CC(=O)[C@H]1CC[C@H]2[C@@H]3CC[C@H]4C[C@H](O)CC[C@]4(C)[C@H]3CC[C@]12C` [compound 2, allopregnanolone] has a Kd of 11.8 ± 3.1 nM.
